Experimental data published in patent US12409159B2, “3-hydroxybutyrate alone or in combination for use in the treatment of critical care treatment” (KATHOLIEKE UNIVERSITEIT LEUVEN, priority 2016, dated 2025).
Where a name gives a salt, the structure may show the parent alone.

How the values were obtained:
[1] = test system: mouse model of prolonged critical illness evoked by sepsis (cecal ligation and puncture); assay: 5-day mortality in prolonged critically ill mice; assay type: in vivo
Description: FIG. 10. Effect of 3-hydroxybutyrate injections on 5-day mortality in prolonged critically ill mice. Black line, healthy control mice (15/15 survivors); gray line, parenterally fed critically ill mice (17/20 survivors); dash dot line; parenterally fed critically ill mice receiving 3-hydroxybutyrate (17/21 survivors); dotted line, fasted critically ill mice receiving 3-hydroxybutyrate (14/22 survivors). [PN=parenteral nutrition; 3HB=3-hydroxybutyrate].
(§1) We studied the effect of subcutaneous administration of D,L-3-hydroxybutyrate sodium salt on muscle wasting and weakness in a validated mouse model of prolonged critical illness evoked by sepsis (cecal ligation and puncture followed by resuscitation and intensive medical care). The intervention was studied in the parenterally fed and in the fasted state.
Muscle function was quantified in isolated extensor digitorum longus (EDL) muscle. Critical illness in parenterally fed mice (PN) reduced the absolute maximal force generated by EDL to 57% of healthy controls (p<0.0001) (FIG. 9). However, when parenterally fed critically ill mice received subcutaneous twice daily a bolus of 75 mg of D,L-3-hydroxybutyrate sodium salt (PN+3HB), maximal muscle force improved dramatically to 83% of healthy controls (p<0.0001) (FIG. 9).

[2] = test system: mouse model of prolonged critical illness evoked by sepsis (cecal ligation and puncture); assay: Ex vivo force measurement of isolated extensor digitorum longus (EDL) muscle, mouse model of prolonged critical illness evoked by sepsis; assay type: in vivo, mice
Description: Mice experiment 2: We examined muscle force ex vivo in lean and diet-induced obese CLP mice. […] Mice were randomly allocated to “healthy control” or “CLP.” As in experiment 1 we had observed that muscle wasting occurred irrespective of feeding, we now only compared parenterally fed with pair-fed lean (n=17) and obese (n=15) healthy mice. Until day 5, 15/18 lean and 15/18 obese CLP mice survived. After 5 days, animals were deeply anesthetized and the m. extensor digitorum longus (EDL) was carefully dissected from both hind limbs for ex vivo muscle force measurements.
as §1
Muscle function was quantified in isolated extensor digitorum longus (EDL) muscle. Critical illness in parenterally fed mice (PN) reduced the absolute maximal force generated by EDL to 57% of healthy controls (p<0.0001) (FIG. 9). […]
(§2) Muscle mass and function was quantified in isolated extensor digitorum longus (EDL) muscle. […]

[3] = test system: mouse model of prolonged critical illness evoked by sepsis (cecal ligation and puncture); assay: Muscle wasting: weight of isolated skeletal muscles (EDL, tibialis anterior) in prolonged critically ill mice; assay type: in vivo; conditions: Example 7, first experiment, fasted critically ill mice
Experimental: To control for potential illness- or resuscitation-related changes in fluid content, dry weight of isolated tissues was obtained by a freeze-drying process. Myofiber cross-sectional area (CSA) was quantified on digital microscopy images of hematoxylin and eosin stained paraffin sections with in-house designed algorithms. In addition, the presence of myofiber degeneration, necrosis and inflammation was histologically evaluated. Triglyceride content of tissues was determined with a commercial colorimetric assay (triglyceride quantification kit, Abcam, Cambridge, UK).
as §1
Muscle wasting was evaluated by quantification of the dry weight of isolated skeletal muscles. Muscle weight of the EDL muscle decreased in all critically ill mice, irrespective of hydroxybutyrate treatment or nutritional regime (1.9±0.3 mg for PN, 2.1±0.3 mg for PN+3HB, and 2.0±0.4 mg for fasting+3HB as compared with 2.7±0.3 mg in healthy control mice; p<0.0001) (FIG. 11A). […]
as §2

Question: Which results are given for `CC(O)CC(=O)O` (racemic) [D,L-3-hydroxybutyrate sodium salt]?
Answer: 5-day survivors ([1]; fasted critically ill mice): 14/22; risk of death ([1]; fasted critically ill mice, 3HB 75 mg boluses twice daily): increased risk of death; 5-day survivors ([1]; parenterally fed critically ill mice): 17/21; absolute maximal force generated by EDL, % of healthy controls ([2]; Example 7, first experiment, fasted critically ill mice (survivors), 3HB 75 mg subcutaneous bolus twice daily): 33%; effect on muscle weakness and muscle wasting (conclusion) ([2]; daily supplementation to parenterally fed mice, prolonged sepsis-induced critical illness): largely prevented muscle weakness but not muscle wasting; dry weight of the EDL muscle ([3]; healthy controls 2.7±0.3 mg): 2.0 ± 0.4 mg; dry weight of the tibialis anterior muscle ([3]; healthy controls 12.4±1.3 mg): 8.4 ± 1.8 mg
